# Source: article PMC1871596, “Requirement of aggregation propensity of Alzheimer amyloid peptides for neuronal cell surface binding” (BMC Neuroscience, 2007)
# B1: trypsin: protease (9590 units/mg) used to remove cell surface proteins from PC12 cells (protein, UniProt P00760 24-246, looked up)
# Serine protease 1: IVGGYTCGANTVPYQVSLNSGYHFCGGSLINSQWVVSAAHCYKSGIQVRLGEDNINVVEGNEQFISASKSIVHPSYNSNTLNNDIMLIKLKSAASLNSRVASISLPTSCASAGTQCLISGWGNTKSSGTSYPDVLKCLKAPILSDSSCKSAYPGQITSNMFCAGYLEGGKDSCQGDSGGPVVCSGKLQGIVSWGSGCAQKNKPGVYTKVCNYVSWIKQTIASN
# Columns and labels:
# [1] = unlabelled mutant; cited from earlier work
# Excerpt: We also studied a double mutant (F19S/L34P) of Aβ42 (hereon referred to as 'mutant peptide'), which was discovered through a GFP-based screen for mutations that reduce the aggregation p ...
# [2] = test system: NGF differentiated PC12 cells; assay: Blocking the binding of Aβ42 to the surface of live PC12 cells (flow cytometry); format: cell-based, rat; settings: cells pre-treated with the reagent, then TMR-labelled Aβ42 1.5 μM for 1-2 hours, trypsin 10 μg/mL 15 min then SBTI, Figure 6A
# Description: NGF differentiated PC12 cells treated with Aβ (1.5 μM) were washed once with cold D-PBS, followed by mechanical detachment with D-PBS. Collected cells were centrifuged (200 × g for 1 minute) and resuspended in cold flow buffer containing 5 mM EDTA and 1% BSA (Fisher Scientific, Nepean, ON) in D-PBS. Samples were immediately analyzed with a FACS Calibur flow cytometer (Becton Dickinson, Mississauga, ON). TMR-labelled samples were detected with 585/42 filter collecting 5 × 10^4 events per sample using 100–300 events/s flow rate. Cell viability was assessed with 25 μg/mL 7-Aminoactinomycin D (7-AAD) treatment for 5 minutes and detected with a long pass 650 nm filter. Data collection and analysis were performed using Cell Quest version 3.3 and figures were created using WinMDI version 2.8 software.
# Various treatments to block or remove lipid, carbohydrate, or protein components from the surface of live PC12 cells were performed and their effects on Aβ binding was examined. NGF differentiated PC12 cells were treated with 100 ng/mL FITC labelled annexin V (to block negatively charged phospholipids) or 10 μg/mL FITC labelled cholera toxin subunit B (to block GM1 ganglioside) for 20 minutes before addition of Aβ42 (final concentration 1.5 μM) for two hours. […] After Aβ42 addition, treated cells and untreated control cells were analyzed using flow cytometry.
Molecule,aggregation state of the mutant [1],effect of cell surface treatment on Aβ42 binding [2]
"DAEFRHDSGYEVHHQKLVSFAEDVGSNKGAIIGPMVGGVVIA [double mutant (F19S/L34P) of Aβ42, double mutant (F19S/L34P) of Aβ42 with reduced aggregation propensity, unlabelled]",soluble unstructured monomeric peptide,
B1,,significantly decreased
